Holding throughout (format): cell-based
In assay [1] the test system is Staphylococcus aureus 100 (ATCC 29213). Description: MIC by broth microdilution, SA 100. The essentials: (§1)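 Per CLSI: serial twofold handling automated, Mueller-Hinton broth, clinical isolate inoculum, MIC recorded.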
For orientation: Dilution methods test growth across graded concentrations, often in twofold steps.

Assay [2] deals with Staphylococcus epidermidis 835. Description: MIC by broth microdilution, SE 835. In a few lines: as §1
The test system of assay [3] is Enterococcus faecalis 848 (VRE, Van A). Description: MIC by broth microdilution, EFc 848. The essentials: as §1
For assay [4], the system named is Streptococcus pneumoniae 1195 (ATCC 49619). Nature of the assay: MIC by broth microdilution, SPNE 1195. In a few lines: as §1
Assay [5] relates to Enterococcus faecalis 101 (ATCC 29212). Nature of the assay: MIC by broth microdilution, EFc 101. In a few lines:
as §1

For assay [6], the system named is Staphylococcus aureus 2012 (VISA). Description: MIC by broth microdilution, SA 2012. In a few lines:
as §1

The subject of assay [7] is Staphylococcus epidermidis 831 (MRSE). Description: MIC by broth microdilution, SE 831. The settings on record: read-out: MIC SE 831. The essentials: as §1
Assay [8] concerns Streptococcus pyogenes 712. Nature of the assay: MIC by broth microdilution, SPY 712. In a few lines:
as §1

The subject of assay [9] is Staphylococcus aureus 757 (MRSA). Nature of the assay: MIC by broth microdilution, SA 757. As to conditions: read-out: MIC SA 757. In a few lines:
as §1

The test system of assay [10] is Enterococcus faecium 752 (VRE, Van A). Description: MIC by broth microdilution, EFcm 752. In a few lines: as §1
Another assay concerns Enterococcus faecium 800. Nature of the assay: MIC by broth microdilution, EFcm 800. The essentials: as §1
The mark [11] stands for this setting: Staphylococcus aureus, ATCC29213, read-out: MIC SA 100.
Setting [12] is: Staphylococcus epidermidis, 835, read-out: MIC SE 835.
[13] abbreviates: Enterococcus faecalis, VRE, read-out: MIC E FC 848, Enterococcus faecalis 848 (VRE, Van A), class symbols.
The mark [14] stands for this setting: Streptococcus pneumoniae, ATCC49619, read-out: MIC S PNE 1195.
The mark [15] stands for this setting: Enterococcus faecalis, ATCC29212, read-out: MIC E FC 101, Enterococcus faecalis 101 (ATCC 29212), class symbols.
Setting [16] is: Staphylococcus aureus, VISA, read-out: MIC SA 2012, Staphylococcus aureus 2012 (VISA), class symbols.
Where [17] appears, read: Staphylococcus epidermidis, MRSE.
Where [18] appears, read: Streptococcus pyogenes, 712, read-out: MIC S PYO 712.
The mark [19] stands for this setting: Enterococcus faecium, VRE, read-out: MIC E FCM 752, Enterococcus faecium 752 (VRE, Van A), class symbols.
Where [20] appears, read: Enterococcus faecium, 800, read-out: MIC E FCM 800.

SMILES strings stand for the structures. Values after ≈ are worked out from the molar mass of the structure shown. Where two headings read alike, the source gives them in different places.

In the case of `CCCCCOc1ccc(S(=O)(=O)NCCCCNC(=O)Oc2cc(O)c3c(c2)[C@@H](C(=O)NC2C4CC5CC(C4)CC2C5)NC(=O)[C@H]2NC(=O)[C@H](NC(=O)[C@@H]4NC(=O)[C@H](CC(N)=O)NC(=O)[C@H](NC(=O)[C@@H](CC(C)C)NC)[C@H](O)c5ccc(c(Cl)c5)Oc5cc4cc(c5O[C@@H]4O[C@H](CO)[C@@H](O)[C@H](O)[C@H]4O[C@H]4C[C@](C)(N)[C@H](O)[C@H](C)O4)Oc4ccc(cc4Cl)[C@H]2O)c2ccc(O)c-3c2)cc1` (stereo partly shown) [Compound 334], the MIC in assay [1] (setting [11]) lay in the range of 0.01 to 0.5 µg/mL (≈ 0.0052 to 0.26 µM); in assay [2] (setting [12]), 0.01 to 0.5 µg/mL (≈ 0.0052 to 0.26 µM); in assay [3] (setting [13]), 8 to 16 µg/mL (≈ 4.16 to 8.32 µM); in assay [4] (setting [14]), 0.01 to 0.5 µg/mL (≈ 0.0052 to 0.26 µM); in [5] (setting [15]), 0.01 to 0.5 µg/mL (≈ 0.0052 to 0.26 µM); in assay [6] (setting [16]) it was 1 to 2 µg/mL (≈ 0.52 to 1.04 µM). Further, the MIC in [7] (setting [17]) was in the range of 0.01 to 0.5 µg/mL (≈ 0.0052 to 0.26 µM); in [8] (setting [18]) it was 0.01 to 0.5 µg/mL (≈ 0.0052 to 0.26 µM); in assay [9] (Staphylococcus aureus, MRSA), 0.01 to 0.5 µg/mL (≈ 0.0052 to 0.26 µM); in assay [10] (setting [19]), 0.5 to 1 µg/mL (≈ 0.26 to 0.52 µM); in the assay with Enterococcus faecium 800 (setting [20]), 0.01 to 0.5 µg/mL (≈ 0.0052 to 0.26 µM).

With `CNCCOc1ccc(CCNC(=O)Oc2cc(O)c3c(c2)[C@@H](C(=O)NC2C4CC5CC(C4)CC2C5)NC(=O)[C@H]2NC(=O)[C@H](NC(=O)[C@@H]4NC(=O)[C@H](CC(N)=O)NC(=O)[C@H](NC(=O)[C@@H](CC(C)C)NC)[C@H](O)c5ccc(c(Cl)c5)Oc5cc4cc(c5O[C@@H]4O[C@H](CO)[C@@H](O)[C@H](O)[C@H]4O[C@H]4C[C@](C)(N)[C@H](O)[C@H](C)O4)Oc4ccc(cc4Cl)[C@H]2O)c2ccc(O)c-3c2)cc1` (stereo partly shown) [Compound 335], the MIC is 0.01 to 0.5 µg/mL (≈ 0.00555 to 0.277 µM) in assay [1] (setting [11]); 0.01 to 0.5 µg/mL (≈ 0.00555 to 0.277 µM) in assay [2] (setting [12]); above 16 µg/mL in assay [3] (setting [13]); 0.01 to 0.5 µg/mL (≈ 0.00555 to 0.277 µM) in [4] (setting [14]); 0.01 to 0.5 µg/mL (≈ 0.00555 to 0.277 µM) in assay [5] (setting [15]); 1 to 2 µg/mL (≈ 0.555 to 1.11 µM) in assay [6] (setting [16]). Besides, the MIC in assay [7] (setting [17]) fell in the range of 0.01 to 0.5 µg/mL (≈ 0.00555 to 0.277 µM); in assay [8] (setting [18]) it was 0.01 to 0.5 µg/mL (≈ 0.00555 to 0.277 µM); in assay [9] (Staphylococcus aureus, MRSA), 0.01 to 0.5 µg/mL (≈ 0.00555 to 0.277 µM); in assay [10] (setting [19]), 2 to 4 µg/mL (≈ 1.11 to 2.22 µM); in the assay on Enterococcus faecium 800 (setting [20]) it was 0.01 to 0.5 µg/mL (≈ 0.00555 to 0.277 µM).

Take `CN[C@H](CC(C)C)C(=O)N[C@H]1C(=O)N[C@@H](CC(N)=O)C(=O)N[C@H]2C(=O)N[C@H]3C(=O)N[C@H](C(=O)N[C@H](C(=O)O)c4cc(O)cc(O)c4-c4cc3ccc4O)[C@H](O)c3ccc(c(Cl)c3)Oc3cc2cc(c3O[C@@H]2O[C@H](CO)[C@@H](O)[C@H](O)[C@H]2O[C@H]2C[C@](C)(N)[C@H](O)[C@H](C)O2)Oc2ccc(cc2Cl)[C@H]1O` [Vancomycin, vancomycin, reference compound]: the MIC is 1 µg/mL (≈ 0.69 µM) in assay [1] (setting [11]); 2 µg/mL (≈ 1.38 µM) in [2] (setting [12]); above 64 µg/mL in [3] (Enterococcus faecalis, VRE, read-out: MIC E FC 848, Enterococcus faecalis 848 (VRE, Van A), numeric, comparison); 0.25 µg/mL (≈ 0.173 µM) in assay [4] (setting [14]); 2 µg/mL (≈ 1.38 µM) in assay [5] (Enterococcus faecalis, ATCC29212, read-out: MIC E FC 101, Enterococcus faecalis 101 (ATCC 29212), numeric, comparison); 16 µg/mL (≈ 11 µM) in [6] (Staphylococcus aureus, VISA, read-out: MIC SA 2012, Staphylococcus aureus 2012 (VISA), numeric, comparison). The MIC in assay [7] (setting [17]) was 2 µg/mL (≈ 1.38 µM); in assay [8] (setting [18]) it was 0.5 µg/mL (≈ 0.345 µM); in [9] (Staphylococcus aureus, MRSA) it was 1 µg/mL (≈ 0.69 µM); in [10] (Enterococcus faecium, VRE, read-out: MIC E FCM 752, Enterococcus faecium 752 (VRE, Van A), numeric, comparison), above 64 µg/mL; in the assay with Enterococcus faecium 800 (setting [20]), 1 µg/mL (≈ 0.69 µM). In [5] (Enterococcus faecalis 101 (ATCC 29212), numeric, comparison), the “MIC E FC 101” value was 4 µg/mL (≈ 2.76 µM). Besides, the “MIC SA 2012” value in assay [6] (Staphylococcus aureus 2012 (VISA), numeric, comparison) stood at 8 µg/mL (≈ 5.52 µM).

Consider `CCCCCCc1ccc(S(=O)(=O)NCCCCCCNCc2c(O)cc3c(c2O)-c2cc(ccc2O)[C@H]2NC(=O)[C@@H]4NC(=O)[C@H](CC(N)=O)NC(=O)[C@H](NC(=O)[C@@H](CC(C)C)NC)[C@H](O)c5ccc(c(Cl)c5)Oc5cc4cc(c5O[C@@H]4O[C@H](CO)[C@@H](O)[C@H](O)[C@H]4O[C@H]4C[C@](C)(NC(=O)CCCCCN)[C@H](O)[C@H](C)O4)Oc4ccc(cc4Cl)[C@@H](O)[C@H](NC2=O)C(=O)N[C@@H]3C(=O)O)cc1` (atropisomer, axis not shown) [Compound 344], for which the MIC in assay [1] (ATCC29213, Staphylococcus aureus 100 (ATCC 29213), class symbols, read-out: MIC SA 100) is 0.01 to 0.5 µg/mL (≈ 0.00522 to 0.261 µM); in assay [2] (Staphylococcus epidermidis 835, class symbols, read-out: MIC SE 835), 0.01 to 0.5 µg/mL (≈ 0.00522 to 0.261 µM); in assay [3] (Enterococcus faecalis 848 (VRE, Van A), class symbols, read-out: MIC E FC 848) it was 4 to 8 µg/mL (≈ 2.09 to 4.18 µM); in assay [4] (ATCC49619, Streptococcus pneumoniae 1195 (ATCC 49619), class symbols, read-out: MIC S PNE 1195), 0.01 to 0.5 µg/mL (≈ 0.00522 to 0.261 µM); in assay [5] (ATCC29212, Enterococcus faecalis 101 (ATCC 29212), class symbols, read-out: MIC E FC 101) it was 0.01 to 0.5 µg/mL (≈ 0.00522 to 0.261 µM); in assay [6] (Staphylococcus aureus 2012 (VISA), class symbols, read-out: MIC SA 2012) it was 0.01 to 0.5 µg/mL (≈ 0.00522 to 0.261 µM). Besides, the MIC in [7] (Staphylococcus epidermidis 831 (MRSE), class symbols) lay in the range of 0.01 to 0.5 µg/mL (≈ 0.00522 to 0.261 µM); in assay [8] (Streptococcus pyogenes 712, class symbols, read-out: MIC S PYO 712) it was 0.01 to 0.5 µg/mL (≈ 0.00522 to 0.261 µM); in assay [9] (Staphylococcus aureus 757 (MRSA), class symbols) it was 0.01 to 0.5 µg/mL (≈ 0.00522 to 0.261 µM); in [10] (Enterococcus faecium 752 (VRE, Van A), class symbols, read-out: MIC E FCM 752), 1 to 2 µg/mL (≈ 0.522 to 1.04 µM); in the assay with Enterococcus faecium 800 (Enterococcus faecium 800, class symbols, read-out: MIC E FCM 800) it was 0.01 to 0.5 µg/mL (≈ 0.00522 to 0.261 µM).

One may read the MIC as the smallest concentration in the dilution series that meets the test's criterion for growth inhibition.

The values are drawn from patent US20110015119A1, “NOVEL SEMI-SYNTHETIC GLYCOPEPTIDES AS ANTIBACTERIAL AGENTS” (LEAD THERAPEUTICS, INC., priority 2009, published 2011).
